Reference: US6589985B2, “Carbamate compounds for use in preventing or treating movement disorders” (Ortho-McNeil Pharmaceutical, Inc., priority 2001, dated 2003)

Columns and labels:
harmaline-induced tremor = assay: Harmaline-induced tremors in rats; format: in vivo, Sprague-Dawley rats; conditions: for Tremor Score Median: harmaline 6 mg/kg i.p. 60 min later, observed 30 min, vehicle median 6.00, p<0.01 vs vehicle
Excerpt: Harmaline-induced tremor in rats is a commonly accepted animal model that is predictive of essential tremor and related movement disorders in human (Miwa H, et. al., Differential expression of c-Fos following administration of two tremorgenic agents: harmaline and oxotremorine, NeuroReport, 2000, 11 (11), 2385-2390; Stanford J A and Fowler S C, At low doses, harmaline increases forelimb tremor in the rat, Neurosci. Lett., 1998, 241 (1), 41-44; Sinton C M, The effectiveness of different isomers of octanol as blockers of harmaline-induced tremor, Pfluegers Arch., 1989, 414 (1), 31-6).
An enantiomer of Formula (Ib) was evaluated for efficacy in treating essential tremor and related movement disorders with doses up to 30 mg/kg. The enantiomer of Formula (Ib) or vehicle (0.5% hydroxypropyl methylcellulose) was administered orally by gavage in a dose volume equivalent to 5 mL/kg to Sprague-Dawley rats (135 to 275 g). Harmaline (6 mg/kg in volume of 5 mL/kg, i.p.) was administered 60 min thereafter. Immediately after the harmaline administration, rats were placed individually in a blinded fashion in plastic cages on wood-chip bedding and observed for 30 minutes. Appearance of tremors was scored using a nine-item checklist. The checklist includes scoring for: tremors at rest, tremors during locomotion, intermittent tremors, continuous tremors, tremors provoked by tail-restraint, generalized tremors (head, body and tail), tremors of the head only, tremors of the body only and tremors of the tail only. Signs observed in rats treated with vehicle or test compound are compared by ranking tremor quality and severity.
Tremor provoked following tail-restraint was assigned a score =1. Tremors that appear continuously were assigned a score =2, while tremors that appear intermittently were assigned a score =1. The appearance of generalized tremors were assigned a score =2, while a score =1 was assigned to tremor that involves only the head, body or tail of the rat. The severity of tremor is scored subjectively as mild in intensity or as moderate or marked. […]

essential tremor [1] = conditions: nine patients with essential tremor; cited from earlier work
essential tremor [2] = conditions: open-label report, essential tremor patients; cited from earlier work

NC(=O)OC[C@@H](O)c1ccccc1Cl [Formula (Ib)]
Tremor Score Median (harmaline-induced tremor; 20 mg/kg p.o.): 2.00
Tremor Score Median (harmaline-induced tremor; 30 mg/kg p.o.): 1.20
reduction in the tremor score in drug-treated groups compared to the vehicle-treated group (harmaline-induced tremor; Kruskal-Wallis nonparametric one-way method, rats, p.o.): significant

CC1(C)O[C@@H]2[C@@H](CO[C@@]3(COS(N)(=O)=O)OC(C)(C)O[C@@H]23)O1 [Topiramate]
patient self-rating after topiramate therapy (essential tremor [1]): Eight patients rated themselves as better and with less disability

NCC1(CC(=O)O)CCCCC1 [gabapentin, Gabapentin]
effect on tremor (essential tremor [2]): reduced tremor in five patients
